Measured values: US10155722B2, “Antitumor compound targeting IDH2 mutation and method of use thereof” (CHIA TAI TIANQING PHARMACEUTICAL GROUP CO., LTD., priority 2015, dated 2018)
Like-named read-outs stand apart in the source and are kept apart here. Values belong to the molecule of their own block, whether it stands above or below them.

Experiments:
[1] = system: cells carrying the most common IDH1 mutant; conditions: cited from earlier work
[2] = system: glioma cells carrying the IDH1 mutant; conditions: cited from earlier work
glioma cells [3] = conditions: treatment of cell cultures; cited from earlier work
glioma cells [4] = conditions: oral administration to mice with a transplanted tumour; cited from earlier work
[5] = Pharmacokinetics parameters in rats after intragastric administration; format: in vivo; conditions: for AUC(0-inf) / Cmax / Tmax / half-life: rat, po, male rats, intragastric, single dose 5 mg/kg, plasma; for half-life (in words) / metabolism in vivo (in words) / plasma concentration compared with AG-6780 at the same dose: rats, 5 mg/kg intragastric
Description: The pharmacokinetic parameters of compounds of the present application were determined by using the following method.
Healthy male adult rats (7-9 weeks old) were used in this study. Each group of animals (3 male rats) was intragastrically administered once at a single dose of 5 mg/kg with 10% DMSO+70% PEG400+20% NS as adjuvants. The animals in the intragastric administration group were fasted overnight before this study. The fasting time period was from 10 hours before administration to 4 hours after administration.
Blood samples were taken at 0.25, 0.5, 1, 2, 4, 6, 8 and 24 h after administration. The animals were anesthetized with isoflurane using an animal anesthesia machine, and then 0.3 mL whole blood samples were taken from the fundus venous plexus. The blood samples were placed in heparin anticoagulant tubes, and centrifuged for 5 min at 4° C. and 4000 rpm. The resulting plasmas were transferred to centrifuge tubes, and stored at −80° C. until analysis.
Verified LC-MS/MS method was used to analyze the plasma samples. Plasma concentration-time data of animals were analyzed using WinNonlin (Professional Edition, version 6.3; Pharsight Company) software. The non-compartmental model was introduced for concentration analysis.

[6] = system: cells carrying the most common IDH2 mutant; conditions: cited from earlier work
[7] = system: leukemia cells carrying the IDH2 mutant; conditions: cited from earlier work
IDH2 (R172K, 40-end) = IDH2 (R172K, 40-end) (Homo sapiens (Human), UniProt P48735, R172K); assay: IDH2 (R172K, 40-end) inhibitory activity, NADPH depletion with diaphorase/resazurin readout; format: biochemical; conditions: 80 nM enzyme, 40 μM NADPH, 4 mM α-KG
Chain of IDH2 (R172K, 40-end) (P48735 40-452 R172K): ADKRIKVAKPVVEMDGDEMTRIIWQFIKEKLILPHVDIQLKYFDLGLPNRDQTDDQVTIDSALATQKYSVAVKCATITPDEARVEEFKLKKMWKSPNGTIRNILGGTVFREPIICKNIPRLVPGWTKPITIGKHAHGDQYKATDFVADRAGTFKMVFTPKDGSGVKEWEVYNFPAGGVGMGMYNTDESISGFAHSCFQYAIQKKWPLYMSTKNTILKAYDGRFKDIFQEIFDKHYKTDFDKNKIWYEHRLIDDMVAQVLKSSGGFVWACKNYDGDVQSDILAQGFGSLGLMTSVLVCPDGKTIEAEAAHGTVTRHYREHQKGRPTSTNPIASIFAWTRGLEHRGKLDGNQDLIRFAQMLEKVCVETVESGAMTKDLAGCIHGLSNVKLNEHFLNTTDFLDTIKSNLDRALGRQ
Description: The inhibitory activity of a compound against IDH2 (R172K, 40-end) was determined by the decrease of a helper factor NADPH. The test compound was pre-incubated with an enzyme and NADPH, and then a reaction was initiated by the addition of a-KG, and performed for 120 minutes under a linear condition. Then, the reaction was terminated by the addition of diaphorase (lipoamide dehydrogenase) and the corresponding substrate resazurin. Diaphorase terminated the IDH2m reaction by decreasing the available helper factor NADPH, which oxidized NADPH to NADP, and reduced resazurin to highly fluorescent resorufin. The amount of remaining helper factor NADPH after a specific reaction time was quantified via an easily detectable fluorophore. Specifically, 2.5 μl of a 3-fold gradient diluted test compound was added to a 384-well plate, and then 5 μl of a reaction buffer (20 mM Tris-HCl, PH7.5; 150 mM NaCl; 10 mM MgC12; 10 mM MnCl2; 0.4 mg/ml BSA and 2 mM DTT) containing 80 nM IDH2 (R172K, 40-end) and 40 μM NADPH was added. Then, the resulting test mixture was incubated for 120 minutes at a temperature of 23° C., and then 2.5 μl of the reaction buffer containing 4 mM α-KG was added to initiate the reaction. After incubating for 120 minutes at room temperature, 5 μl of a termination mixture (0.4 U/ml diaphorase and 40 μM resazurin) prepared with the reaction buffer was added to convert resazurin to resorufin to determine the remaining NADPH. After incubating for 10 minutes at a temperature of 23° C., a fluorescence value was determined through Flexstation 3 at Ex535/Em595.

Structure (SMILES): Cc1ccccc1C(C(=O)NC1CCCCC1)N(C(=O)Cn1ccnc1C)c1cccc(F)c1 (centres unmarked) [AGI-5198]
generation of 2-HG [1]: inhibit the generation of 2-HG
expression of mature markers [2]: enhanced expression of mature markers
growth rate of glioma cells (glioma cells [3]): inhibit the growth rate
growth rate of glioma cells (glioma cells [4]): inhibit the growth rate

AUC(0-inf) [5]: 559 ng·h/mL
Cmax [5]: 191 ng/mL
Tmax [5]: 2.83 h
half-life [5]: 1.49 h
Structure (SMILES): O=C(Nc1cccc(C(F)(F)F)c1)Nc1cc(S(=O)(=O)NC2CC2)ccc1-c1ccsc1 [AGI-6780, reference compound]
generation of 2-HG [6]: inhibit the generation of 2-HG
expression of mature markers [7]: enhanced expression of mature markers

IC50 (IDH2 (R172K, 40-end)): 14.2 nM
Structure (SMILES): O=C(Nc1cccc(C(F)(F)F)c1)Nc1cc(C(F)(F)C(=O)NC2CC2)ccc1-c1ccsc1 [Example 1, N-cyclopropyl-2,2-difluoro-2-(4-(thiophen-3-yl)-3-(3-(3-(trifluoromethyl)phenyl)ureido)phenyl)acetamide]

IC50 (IDH2 (R172K, 40-end)): 45.5 nM
Structure (SMILES): O=C(Nc1cccc(C(F)(F)F)c1)Nc1cc(C(F)(F)C(=O)NCC(F)(F)F)ccc1-c1ccsc1 [Example 2]

IC50 (IDH2 (R172K, 40-end)): 62.4 nM
Structure (SMILES): CC(C)NC(=O)C(F)(F)c1ccc(-c2ccsc2)c(NC(=O)Nc2cccc(C(F)(F)F)c2)c1 [Example 3]

IC50 (IDH2 (R172K, 40-end)): 56.5 nM
Structure (SMILES): N#CC1(NC(=O)C(F)(F)c2ccc(-c3ccsc3)c(NC(=O)Nc3cccc(C(F)(F)F)c3)c2)CC1 [Example 4, N-(1-cyanocyclopropyl)-2,2-difluoro-2-(4-(thiophen-3-yl)-3-(3-(3-(trifluoromethyl)phenyl)ureido)phenyl)acetamide]

IC50 (IDH2 (R172K, 40-end)): 29.5 nM
AUC(0-inf) [5]: 858 ng·h/mL
Cmax [5]: 495 ng/mL
Tmax [5]: 0.42 h
half-life [5]: 4.37 h
half-life (in words) [5]: long half-life
metabolism in vivo (in words) [5]: very good metabolism in vivo
plasma concentration compared with AG-6780 at the same dose [5]: higher plasma concentration
Structure (SMILES): O=C(Nc1cccc(C(F)(F)F)c1)Nc1cc(C(F)(F)C(=O)NC2COC2)ccc1-c1ccsc1 [Example 5, 2,2-Difluoro-N-(oxetan-3-yl)-2-(4-(thiophen-3-yl)-3-(3-(3-(trifluoromethyl)phenyl)ureido)phenyl)acetamide]

IC50 (IDH2 (R172K, 40-end)): 391 nM
Structure (SMILES): O=C(Nc1ccc(F)c(C(F)(F)F)c1)Nc1cc(C(F)(F)C(=O)NC2CC2)ccc1-c1ccsc1 [Example 10, N-cyclopropyl-2,2-difluoro-2-(3-(3-(4-fluoro-3-(trifluoromethyl)phenyl)ureido)-4-(thiophen-3-yl)phenyl)acetamide]

IC50 (IDH2 (R172K, 40-end)): 53.8 nM
Structure (SMILES): O=C(Nc1cccc(C(F)(F)F)c1)Nc1cc(C(F)(F)C(=O)NC2CC2)ccc1-c1ccccc1 [Example 12, N-cyclopropyl-2,2-difluoro-2-(2-(3-(3-(trifluoromethyl)phenyl)ureido)-[1,1′-biphenyl]-4-yl)acetamide]

IC50 (IDH2 (R172K, 40-end)): 106 nM
Structure (SMILES): Cc1cc(-c2ccc(C(F)(F)C(=O)NC3CC3)cc2NC(=O)Nc2cccc(C(F)(F)F)c2)n(C)n1 [Example 13, N-cyclopropyl-2-(4-(1,3-dimethyl-1H-pyrazol-5-yl)-3-(3-(3-(trifluoromethyl)phenyl)ureido)phenyl)-2,2-difluoroacetamide]

IC50 (IDH2 (R172K, 40-end)): 69.9 nM
Structure (SMILES): CC(C(=O)NC1CC1)c1ccc(-c2ccsc2)c(NC(=O)Nc2cccc(C(F)(F)F)c2)c1 (centres unmarked) [Example 14, N-cyclopropyl-2-(4-(thiophen-3-yl)-3-(3-(3-(trifluoromethyl)phenyl)ureido)phenyl) propanamide]

IC50 (IDH2 (R172K, 40-end)): 65.7 nM
Structure (SMILES): CC(C)(C(=O)NC1CC1)c1ccc(-c2ccsc2)c(NC(=O)Nc2cccc(C(F)(F)F)c2)c1 [Example 15, N-cyclopropyl-2-methyl-2-(4-(thiophen-3-yl)-3-(3-(3-(trifluoromethyl)phenyl)ureido)phenyl)propanamide]

IC50 (IDH2 (R172K, 40-end)): 75.8 nM
Structure (SMILES): O=C(Cc1ccc(-c2ccsc2)c(NC(=O)Nc2cccc(C(F)(F)F)c2)c1)NC1CC1 [Example 16]

IC50 (IDH2 (R172K, 40-end)): 138 nM
Structure (SMILES): O=C(Nc1cccc(C(F)(F)F)c1)Nc1cc(C2(C(=O)NC3CC3)CC2)ccc1-c1ccsc1 [Example 17, N-cyclopropyl-1-(4-(thiophen-3-yl)-3-(3-(3-(trifluoromethyl)phenyl)ureido)phenyl) cyclopropanecarboxamide]

IC50 (IDH2 (R172K, 40-end)): 1230 nM
Structure (SMILES): CC(C)(C(=O)NC1CC1)c1ccc(-c2ccsc2)c(NC(=O)Nc2ccc3c(c2)C(=O)NC3)c1 [Example 18, N-cyclopropyl-2-methyl-2-(3-(3-(3-oxoisoindol-5-yl)ureido)-4-(thiophen-3-yl)phenyl) propanamide]

IC50 (IDH2 (R172K, 40-end)): 87.5 nM
Structure (SMILES): O=C(Nc1cccc(C(F)(F)F)c1)Nc1cc(C2(C(=O)NC3CC3)CCC2)ccc1-c1ccsc1 [Example 19, N-cyclopropyl-1-(4-(thiophen-3-yl)-3-(3-(3-(trifluoromethyl)phenyl)ureido)phenyl) cyclobutanecarboxamide]

IC50 (IDH2 (R172K, 40-end)): 362 nM
Structure (SMILES): CCC(C(=O)NC1CC1)c1ccc(-c2ccsc2)c(NC(=O)Nc2cccc(C(F)(F)F)c2)c1 (centres unmarked) [Example 20, N-cyclopropyl-2-(4-(thiophen-3-yl)-3-(3-(3-(trifluoromethyl)phenyl)ureido)phenyl) butanamide]

IC50 (IDH2 (R172K, 40-end)): 622 nM
Structure (SMILES): NC(C(=O)NC1CC1)c1ccc(-c2ccsc2)c(NC(=O)Nc2cccc(C(F)(F)F)c2)c1 (centres unmarked) [Example 21, 2-Amino-N-cyclopropyl-2-(4-(thiophen-3-yl)-3-(3-(3-(trifluoromethyl)phenyl)ureido)phenyl)acetamide]

IC50 (IDH2 (R172K, 40-end)): 551 nM
Structure (SMILES): O=C(Nc1cccc(C(F)(F)F)c1)Nc1cc(C(=O)NC2CC2)ccc1-c1ccsc1 [Example 23, N-cyclopropyl-4-(thiophen-3-yl)-3-(3-(3-(trifluoromethyl)phenyl)ureido)benzamide]

IC50 (IDH2 (R172K, 40-end)): 312 nM
Structure (SMILES): CC(NC1CC1)c1ccc(-c2ccsc2)c(NC(=O)Nc2cccc(C(F)(F)F)c2)c1 (centres unmarked) [Example 24, 1-(5-(1-(cyclopropylamino)ethyl)-2-(thiophen-3-yl)phenyl)-3-(3-(trifluoromethyl)phenyl)urea]

IC50 (IDH2 (R172K, 40-end)): 82.9 nM
Structure (SMILES): CC(NC(=O)C1CC1)c1ccc(-c2ccsc2)c(NC(=O)Nc2cccc(C(F)(F)F)c2)c1 (centres unmarked) [Example 27, N-(1-(4-(thiophen-3-yl)-3-(3-(3-(trifluoromethyl)phenyl)ureido)phenyl)ethyl) cyclopropanecarboxamide]

IC50 (IDH2 (R172K, 40-end)): 55 nM
AUC(0-inf) [5]: 844 ng·h/mL
Cmax [5]: 414 ng/mL
Tmax [5]: 0.33 h
half-life [5]: 2.34 h
half-life (in words) [5]: long half-life
metabolism in vivo (in words) [5]: very good metabolism in vivo
plasma concentration compared with AG-6780 at the same dose [5]: higher plasma concentration
Structure (SMILES): O=C(Nc1cccc(C(F)(F)F)c1)Nc1cc(CNC(=O)C2CC2)ccc1-c1ccsc1 [Example 28, N-(4-(thiophen-3-yl)-3-(3-(3-(trifluoromethyl)phenyl)ureido)benzyl) cyclopropanecarboxamide]
